Columns and labels:
Histamine H3 receptor [1] = biological target: T1, Histamine H3 receptor (Homo sapiens, UniProt Q9Y5N1); assay: Inverse agonist activity at human H3 receptor expressed in CHOK1 cells by GTPgammaS binding assay; type: functional, cell-based, CHO-K1
[2] = Half life in rat at 10 mg/kg, po; type: ADME, organism-based; parameters: dose 10 mg/kg, route oral; details: in vivo
[3] = Tmax in rat at 10 mg/kg, po; type: ADME, organism-based; parameters: dose 10 mg/kg, route oral; details: in vivo
Histamine H3 receptor [4] = biological target: T1, Histamine H3 receptor; assay: Antagonist activity at human histamine H3 receptor expressed in CHOK1 cells by [3H]R(-)-alpha-methylhistamine displacement assay; type: cell-based, CHO-K1
Histamine H3 receptor [5] = biological target: Histamine H3 receptor (Rattus norvegicus, UniProt Q9QYN8); assay: Displacement of N-[3H]methylhistamine from histamine H3 receptor in rat cortex membrane; type: cell membranes
Chain of Histamine H3 receptor (Rattus norvegicus, UniProt Q9QYN8) (Q9QYN8 whole entry): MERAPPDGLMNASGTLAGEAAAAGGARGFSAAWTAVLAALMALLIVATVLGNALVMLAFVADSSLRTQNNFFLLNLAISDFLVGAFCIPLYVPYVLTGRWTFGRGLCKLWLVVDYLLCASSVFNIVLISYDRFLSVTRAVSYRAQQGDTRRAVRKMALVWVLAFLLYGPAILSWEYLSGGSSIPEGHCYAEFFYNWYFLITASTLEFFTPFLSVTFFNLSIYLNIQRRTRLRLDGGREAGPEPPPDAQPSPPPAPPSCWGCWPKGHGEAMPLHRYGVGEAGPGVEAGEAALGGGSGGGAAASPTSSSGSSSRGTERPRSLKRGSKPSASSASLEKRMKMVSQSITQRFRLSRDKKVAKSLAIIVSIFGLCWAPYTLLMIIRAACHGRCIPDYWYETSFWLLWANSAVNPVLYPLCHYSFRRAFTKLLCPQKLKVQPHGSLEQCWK

[6] = Bioavailability in rat at 10 mg/kg, po; type: ADME, organism-based; details: in vivo
Rattus norvegicus = organism: Rattus norvegicus; assay: Inhibition of R(-)-alpha-methylhistamine-induced drinking response in rat dipsogenia model after 0.5 hrs; type: functional, organism-based

T1 sequence (Q9Y5N1 whole entry): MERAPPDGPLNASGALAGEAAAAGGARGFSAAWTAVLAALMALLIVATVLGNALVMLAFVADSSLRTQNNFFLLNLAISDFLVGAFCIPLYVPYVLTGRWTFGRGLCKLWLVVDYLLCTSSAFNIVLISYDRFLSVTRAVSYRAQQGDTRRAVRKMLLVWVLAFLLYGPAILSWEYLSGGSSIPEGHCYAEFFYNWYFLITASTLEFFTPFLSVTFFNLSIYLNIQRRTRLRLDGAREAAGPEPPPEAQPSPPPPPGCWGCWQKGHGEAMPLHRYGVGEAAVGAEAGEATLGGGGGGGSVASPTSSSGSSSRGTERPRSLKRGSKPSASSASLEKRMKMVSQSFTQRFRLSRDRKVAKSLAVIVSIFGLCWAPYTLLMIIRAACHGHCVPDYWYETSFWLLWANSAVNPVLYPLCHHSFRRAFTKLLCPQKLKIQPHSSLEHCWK

| Ki (Histamine H3 receptor [5]) [nM] | Compound | other results |
| --- | --- | --- |
| – | C1=C(c2ccc(CCN3CCCC3)cc2)[C@@H]2CN(CC3CC3)C[C@@H]2C1 | Ki (Histamine H3 receptor [1]): 1 nM; half-life [2]: 6 h; Tmax [3]: 6 h; Ki (Histamine H3 receptor [4]): 0.9 nM |
| 12 | O=C(N1CCOCC1)N1C[C@@H]2CC=C(c3ccc(CCN4CCCC4)cc3)[C@@H]2C1 | – |
| 17 | O=S(=O)(c1ccccc1)N1C[C@@H]2CC=C(c3ccc(CCN4CCCC4)cc3)[C@@H]2C1 | – |
| 1 | C[C@@H]1CCCN1CCc1ccc(C2=CC[C@H]3CN(C(=O)c4cccnc4)C[C@@H]23)cc1 | – |
| 3 | O=C(C1CCCC1)N1C[C@@H]2CC=C(c3ccc(CCN4CCCC4)cc3)[C@@H]2C1 | – |
| 4 | O=C(C1CCOC1)N1C[C@@H]2CC=C(c3ccc(CCN4CCCC4)cc3)[C@@H]2C1 (stereo not given in full) | – |
| 12 | CC(C)S(=O)(=O)N1C[C@@H]2CC=C(c3ccc(CCN4CCCC4)cc3)[C@@H]2C1 | half-life [2]: 5 h; Tmax [3]: 0.2 h; bioavailability [6]: 3% |
| 0.4 | C[C@@H]1CCCN1CCc1ccc(C2=CC[C@H]3CN(C(=O)C4CCCC4)C[C@@H]23)cc1 | – |
| 3 | C[C@@H]1CCCN1CCc1ccc(C2=CC[C@H]3CN(C(=O)c4ccccc4)C[C@@H]23)cc1 | – |
| 12 | O=S(=O)(Cc1ccccc1)N1C[C@@H]2CC=C(c3ccc(CCN4CCCC4)cc3)[C@@H]2C1 | – |
| 0.7 | C[C@@H]1CCCN1CCc1ccc(C2=CC[C@H]3CN(C(=O)C4CCOCC4)C[C@@H]23)cc1 | Ki (Histamine H3 receptor [1]): 4 nM; half-life [2]: 2.5 h; Tmax [3]: 0.3 h; Activity (Rattus norvegicus): Dose-dependent effect; bioavailability [6]: 66%; Ki (Histamine H3 receptor [4]): 2 nM |
| 5 | CC(C)C(=O)N1C[C@@H]2CC=C(c3ccc(CCN4CCCC4)cc3)[C@@H]2C1 | – |
| 0.4 | CC(C)C(=O)N1C[C@@H]2CC=C(c3ccc(CCN4CCC[C@H]4C)cc3)[C@@H]2C1 | – |
| 27 | CS(=O)(=O)N1C[C@@H]2CC=C(c3ccc(CCN4CCCC4)cc3)[C@@H]2C1 | – |
| 16 | O=C(NC1CCCC1)N1C[C@@H]2CC=C(c3ccc(CCN4CCCC4)cc3)[C@@H]2C1 | – |
| 7 | O=C(Cc1ccccc1)N1C[C@@H]2CC=C(c3ccc(CCN4CCCC4)cc3)[C@@H]2C1 | – |
| 20 | CC(C)NC(=O)N1C[C@@H]2CC=C(c3ccc(CCN4CCCC4)cc3)[C@@H]2C1 | half-life [2]: 7.3 h; Tmax [3]: 0.3 h; bioavailability [6]: 22% |
| 6 | O=C(CO)N1C[C@@H]2CC=C(c3ccc(CCN4CCCC4)cc3)[C@@H]2C1 | half-life [2]: 1.8 h; Tmax [3]: 0.6 h; bioavailability [6]: 39% |
| 21 | O=C(c1ccccc1)N1C[C@@H]2CC=C(c3ccc(CCN4CCCC4)cc3)[C@@H]2C1 | – |
| 13 | CN(C)C(=O)N1C[C@@H]2CC=C(c3ccc(CCN4CCCC4)cc3)[C@@H]2C1 | – |
| 6 | O=C(c1cccnc1)N1C[C@@H]2CC=C(c3ccc(CCN4CCCC4)cc3)[C@@H]2C1 | – |
| 0.3 | C[C@@H]1CCCN1CCc1ccc(C2=CC[C@H]3CN(C(=O)Cc4ccccc4)C[C@@H]23)cc1 | – |

— ChEMBL document CHEMBL1158153, “Novel H3 receptor antagonists with improved pharmacokinetic profiles” (Bioorg Med Chem Lett, 2008)
